Reference: patent US10286063B2 (priority 2015, dated 2019)
“Also recorded” adds a separate entry of the source.

system: PBMC; assay type: cell-based, human

Sequence | % Inhibition by HLA-DR blocking Ab | Effect of blocking HLA-DR on peptide-induced T cell response (in words)
SRKLLLIVQALRDNLEPG [Peptide H7N9-11] | increased response | the response increased in the presence of the blocking antibody; also recorded: response was absent except when HLA-DR was blocked
QPEWFRNVLSIAPIMFSNK [Peptide H7N9-4] | 100% | 
AVKLYKKLKREMTFHGA [Peptide H7N9-9] | 100% | 
YAEMKWLLSNTDNAAFPQ [Peptide H7N9-2] | 100% | 
AANIIGILHLILWILDRL [Peptide H7N9-10] | 68% | only partially inhibited
PRYVKQNTLKLATG [IAV-3, reference compound] | 78% | only partially inhibited
QITFMQALQLLLEVE [Peptide H7N9-12] | 100% | 
RIDFHWLMLNPNDTVTFS [Peptide H7N9-1] | 46% | only partially inhibited
IVYWKQWLSLKNLTQ [Peptide H7N9-14A] | 100% | 
PRYVKQRSLLLATG [Peptide H7N9-13] | 100% | 
PKYVKSNRLVLATG [IAV-4, reference compound] | 96% | only partially inhibited
PKYVKSTKLRLATG [IAV-1, reference compound] | 100% | 
PRYVKQSTLKLATG [IAV-2, reference compound] | 73% | only partially inhibited
KGILGFVFTLTVPSERGLQ [Peptide H7N9-3] | 97% | only partially inhibited
DKLYERVKRQLRENAEED [Peptide H7N9-8] | 89% | only partially inhibited

system: Normal subject PBMC; assay type: cell-based, human

Sequence | suppression of T cell response to pool of H7N9 ICS peptides on co-incubation | suppression of T cell responses to HA peptides from circulating IAV strains
AVKLYKKLKREMTFHGA [Peptide H7N9-9] | did not suppress T cell responses to the pool of H7N9 epitopes | 
IVYWKQWLSLKNLTQ [Peptide H7N9-14A] |  | Reduced responses to the pool of IAV peptides (1-4)
PRYVKQRSLLLATG [Peptide H7N9-13] | significantly suppressed T cell response to the pooled peptides; also recorded: significantly decreased | significantly suppressed T cell response to IAV-3; also recorded: Reduced responses to the pool of IAV peptides (1-4); also recorded: able to suppress responses to other immunodominant HA peptides from circulating IAV strains
WKQWLSLKNTLTQGSL [Peptide H7N9-14B] |  | Reduced responses to the pool of IAV peptides (1-4)
